As a reminder, the IC50 is the midpoint of a concentration-inhibition curve.

Read-outs that look alike come from different tables or passages of the source.

Format in all cases: biochemical
The target of experiment [1] is T1, PDE1A (Homo sapiens, UniProt P54750).
T1 construct: purchased Reaction Biology Corporation, Malvern, Pa
Put plainly: Phosphodiesterase enzyme screening assay, PDE1A. In a few lines:
(§1)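 Enzyme activity is measured as conversion of fluorescent cGMP (4.0 μM) to 5′-GMP after 1 h at R.T. in pH 7.5 HEPES/MgCl2/DTT buffer. Product is separated from substrate by microfluidic mobility shift, and inhibition is derived by comparison with control wells.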

Experiment [2] concerns the target T2, PDE9A2 (Homo sapiens, UniProt O76083).
T2 construct: purchased Reaction Biology Corporation, Malvern, Pa
Briefly: Phosphodiesterase enzyme screening assay, PDE9A2. In a few lines:
as §1

Experiment [3] addresses T3, PDE1B (Homo sapiens, UniProt Q01064).
T3 construct: purchased Reaction Biology Corporation, Malvern, Pa
Put plainly: Phosphodiesterase enzyme screening assay, PDE1B. In a few lines: as §1

Setting [4] is: Table 1, ratio of IC50 values, value greater than 1 indicates greater selectivity for PDE9A2.
The mark [5] stands for this setting: Table 1, 10 concentrations, 4.0 μM cGMP substrate, 1 hour at R.T., read-out: Band (PDE9A2 IC50).
Setting [6] is: ratio of IC50 values PDE1A / PDE9A2, value greater than 1 = greater selectivity for PDE9A2.
[7] abbreviates: 4.0 μM cGMP substrate, 1 hour at R.T., read-out: Band (PDE9A2 IC50).
The mark [8] stands for this setting: ratio of IC50 values PDE1B / PDE9A2, value greater than 1 = greater selectivity for PDE9A2.

T2 sequence (O76083 1-533 isoform O76083-2): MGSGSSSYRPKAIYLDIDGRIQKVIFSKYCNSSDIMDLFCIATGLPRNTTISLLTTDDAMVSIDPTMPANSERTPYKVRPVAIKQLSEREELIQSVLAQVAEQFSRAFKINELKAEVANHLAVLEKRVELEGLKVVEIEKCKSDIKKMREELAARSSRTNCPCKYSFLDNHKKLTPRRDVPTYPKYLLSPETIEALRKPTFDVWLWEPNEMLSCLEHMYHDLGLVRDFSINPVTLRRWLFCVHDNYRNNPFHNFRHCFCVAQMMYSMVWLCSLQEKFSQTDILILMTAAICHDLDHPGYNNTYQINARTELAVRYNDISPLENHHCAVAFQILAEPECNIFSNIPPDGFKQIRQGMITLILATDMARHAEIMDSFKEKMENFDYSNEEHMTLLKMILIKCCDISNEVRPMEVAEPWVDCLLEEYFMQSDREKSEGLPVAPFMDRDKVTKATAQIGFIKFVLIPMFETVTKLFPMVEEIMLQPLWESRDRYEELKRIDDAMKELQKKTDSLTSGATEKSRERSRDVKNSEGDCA
T1 sequence (P54750 whole entry): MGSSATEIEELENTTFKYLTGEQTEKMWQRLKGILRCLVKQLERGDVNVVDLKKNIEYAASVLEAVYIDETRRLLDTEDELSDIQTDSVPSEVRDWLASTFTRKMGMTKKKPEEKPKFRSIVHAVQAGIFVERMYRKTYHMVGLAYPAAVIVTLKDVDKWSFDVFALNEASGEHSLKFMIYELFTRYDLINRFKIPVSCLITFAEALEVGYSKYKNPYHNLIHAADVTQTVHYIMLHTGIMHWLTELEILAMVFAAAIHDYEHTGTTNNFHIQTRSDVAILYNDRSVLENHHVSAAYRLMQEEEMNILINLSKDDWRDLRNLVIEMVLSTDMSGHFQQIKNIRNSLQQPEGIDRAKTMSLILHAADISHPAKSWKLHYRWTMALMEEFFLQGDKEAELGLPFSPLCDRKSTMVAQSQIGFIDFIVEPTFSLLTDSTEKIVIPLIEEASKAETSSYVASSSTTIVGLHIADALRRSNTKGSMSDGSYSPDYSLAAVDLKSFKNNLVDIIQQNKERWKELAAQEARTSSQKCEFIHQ
T3 sequence (Q01064 whole entry): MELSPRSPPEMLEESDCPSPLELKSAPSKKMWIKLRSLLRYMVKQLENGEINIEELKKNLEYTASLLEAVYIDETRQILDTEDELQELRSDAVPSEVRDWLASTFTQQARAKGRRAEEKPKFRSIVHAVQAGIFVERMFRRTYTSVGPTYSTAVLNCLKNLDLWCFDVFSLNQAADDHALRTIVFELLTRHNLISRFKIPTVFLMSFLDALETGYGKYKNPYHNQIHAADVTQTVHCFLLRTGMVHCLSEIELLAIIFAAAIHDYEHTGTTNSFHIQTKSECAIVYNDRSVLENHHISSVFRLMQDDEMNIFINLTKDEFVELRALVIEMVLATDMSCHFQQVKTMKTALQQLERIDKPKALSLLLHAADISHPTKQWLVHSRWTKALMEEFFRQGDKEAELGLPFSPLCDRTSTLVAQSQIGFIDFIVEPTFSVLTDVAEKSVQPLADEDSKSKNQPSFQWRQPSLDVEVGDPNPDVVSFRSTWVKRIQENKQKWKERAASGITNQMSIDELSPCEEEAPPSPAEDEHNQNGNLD

For `CC1CN(Cc2ccccc2N2CCCC2)CC1c1nn2c(C3CCOCC3)ncc2c(=O)[nH]1` (single isomer, unassigned; (+)) [(+)-2-((3,4-trans)-4-methyl-1-(2-(pyrrolidin-1-yl)benzyl)pyrrolidin-3-yl)-7-(tetrahydro-2H-pyran-4-yl)imidazo[5,1-f][1,2,4]triazin-4(3H)-one], the “PDE1A selectivity (versus PDE9A2)” value in experiment [1] (setting [4]) came to 184. The concentration for half-maximal inhibition (IC50) in experiment [2] (setting [5]) was less than 1 µM. Besides, in experiment [3] (setting [4]), the “PDE1B selectivity (versus PDE9A2)” value was determined as 213.
On to `CC1CN(Cc2ccc(Cl)c(C(F)(F)F)c2)CC1c1nn2c(C3CCOCC3)ncc2c(=O)[nH]1` (single isomer, unassigned; (+)) [(+)-2-((3,4-trans)-1-(4-chloro-3-(trifluoromethyl)benzyl)-4-methylpyrrolidin-3-yl)-7-(tetrahydro-2H-pyran-4-yl)imidazo[5,1-f][1,2,4]triazin-4(3H)-one], for which the “PDE1A selectivity (versus PDE9A2)” value in experiment [1] (setting [6]) turned out to be 196. The IC50 in experiment [2] (setting [7]) is less than 1 µM. In experiment [3] (setting [8]), the “PDE1B selectivity (versus PDE9A2)” value was 406.
For `CC1CN(Cc2cc(Cl)ccc2F)CC1c1nn2c(C3CCOCC3)ncc2c(=O)[nH]1` (single isomer, unassigned; (+)) [(+)-2-((3,4-trans)-1-(5-chloro-2-fluorobenzyl)-4-methylpyrrolidin-3-yl)-7-(tetrahydro-2H-pyran-4-yl)imidazo[5,1-f][1,2,4]triazin-4(3H)-one] the same measures were 15, less than 1 µM and 16.
As for `CC1CN(Cc2nc3ccccc3n2C)CC1c1nn2c(C3CCOCC3)ncc2c(=O)[nH]1` (single isomer, unassigned; (+)) [(+)-2-((3,4-trans)-4-methyl-1-((1-methyl-1H-benzo[d]imidazol-2-yl)methyl)pyrrolidin-3-yl)-7-(tetrahydro-2H-pyran-4-yl)imidazo[5,1-f][1,2,4]triazin-4(3H)-one], the “PDE1A selectivity (versus PDE9A2)” value in experiment [1] (setting [4]) turned out to be 181. In addition, the IC50 in experiment [2] (setting [5]) is less than 1 µM. Further, the “PDE1B selectivity (versus PDE9A2)” value in experiment [3] (setting [4]) amounted to 356.
With `Cc1ccccc1-c1ncc2c(=O)[nH]c(C3CN(Cc4ccc(F)cc4)CC3C)nn12` (single isomer, unassigned; (+)) [(+)-2-((3,4-trans)-1-(4-fluorobenzyl)-4-methylpyrrolidin-3-yl)-7-(o-tolyl)imidazo[5,1-f][1,2,4]triazin-4(3H)-one], the “PDE1A selectivity (versus PDE9A2)” value in experiment [1] (ratio of IC50 values, PDE1A versus PDE9A2, value greater than 1 indicates greater selectivity for PDE9A2) was 963. Moreover, the IC50 in experiment [2] (read-out: Band (PDE9A2 IC50)) was less than 1 µM. For the same molecule, the “PDE1B selectivity (versus PDE9A2)” value in experiment [3] (ratio of IC50 values, PDE1B versus PDE9A2, value greater than 1 indicates greater selectivity for PDE9A2) was 744.
`C[C@@H]1CN(Cc2cn3ncccc3n2)C[C@H]1c1nn2c(C3CCOCC3)ncc2c(=O)[nH]1` (relative stereo) [(+)-2-((3,4-trans)-1-(imidazo[1,2-b]pyridazin-2-ylmethyl)-4-methylpyrrolidin-3-yl)-7-(tetrahydro-2H-pyran-4-yl)imidazo[5,1-f][1,2,4]triazin-4(3H)-one]: in experiment [1] (setting [4]), the “PDE1A selectivity (versus PDE9A2)” value worked out at 1005. Moreover, the IC50 in experiment [2] (setting [5]) is less than 1 µM. Moreover, the “PDE1B selectivity (versus PDE9A2)” value in experiment [3] (setting [4]) came to 1413.
For `CC1CN(Cc2cccc(C#N)c2)CC1c1nn2c(C3CCOCC3)ncc2c(=O)[nH]1` (single isomer, unassigned; (+)) [(+)-3-(((3,4-trans)-3-methyl-4-(4-oxo-7-(tetrahydro-2H-pyran-4-yl)-3,4-dihydroimidazo[5,1-f][1,2,4]triazin-2-yl)pyrrolidin-1-yl)methyl)benzonitrile] the same measures were 942, less than 1 µM and 343.
For `Cc1cc(F)ccc1-c1ncc2c(=O)[nH]c(C3CN(Cc4nc5ccccn5n4)CC3C)nn12` (single isomer, unassigned; (+)) [(+)-2-((3,4-trans)-1-([1,2,4]triazolo[1,5-a]pyridin-2-ylmethyl)-4-methylpyrrolidin-3-yl)-7-(4-fluoro-2-methylphenyl)imidazo[5,1-f][1,2,4]triazin-4(3H)-one], the “PDE1A selectivity (versus PDE9A2)” value in experiment [1] (ratio of IC50 values PDE1A vs PDE9A2, value greater than 1 indicates greater selectivity for PDE9A2) turned out to be 215. This molecule also displayed a 50% inhibitory concentration (IC50) in experiment [2] (IC50 band, 4.0 μM cGMP substrate, 1 hour at R.T.) of less than 1 µM. Moreover, the “PDE1B selectivity (versus PDE9A2)” value in experiment [3] (ratio of IC50 values PDE1B vs PDE9A2, value greater than 1 indicates greater selectivity for PDE9A2) is 473.
In the case of `CC1CN(Cc2cccc(-n3cccn3)c2)CC1c1nn2c(C3CCOCC3)ncc2c(=O)[nH]1` (single isomer, unassigned; (+)) [(+)-2-((3,4-trans)-1-(3-(1H-pyrazol-1-yl)benzyl)-4-methylpyrrolidin-3-yl)-7-(tetrahydro-2H-pyran-4-yl)imidazo[5,1-f][1,2,4]triazin-4(3H)-one], the “PDE1A selectivity (versus PDE9A2)” value in experiment [1] (setting [4]) came to 612. In experiment [2] (setting [5]), the IC50 was less than 1 µM. Moreover, in experiment [3] (setting [4]), the “PDE1B selectivity (versus PDE9A2)” value is 1490.
`CC1CN(Cc2ccc(Br)cc2)CC1c1nn2c(C3CCOCC3)ncc2c(=O)[nH]1` (single isomer, unassigned; (+)) [(+)-2-((3,4-trans)-1-(4-bromobenzyl)-4-methylpyrrolidin-3-yl)-7-(tetrahydro-2H-pyran-4-yl)imidazo[5,1-f][1,2,4]triazin-4(3H)-one]: the “PDE1A selectivity (versus PDE9A2)” value in experiment [1] (setting [4]) turned out to be 476. For the same molecule, in experiment [2] (setting [5]), the IC50 is less than 1 µM. Further, the “PDE1B selectivity (versus PDE9A2)” value in experiment [3] (setting [4]) is given as 1105.

The values above are taken from patent publication US9969742B2, “Imidazotriazinone compounds” (Ironwood Pharmaceuticals, Inc., priority 2012, dated 2018).
